Measurements taken from ChEMBL document CHEMBL4342439, “Targeting Stimulator of Interferon Genes (STING): A Medicinal Chemistry Perspective” (J Med Chem, 2020).
pEC50, pIC50, pKd: −log10 of the molar value.

Molecular target: not listed separately
Assay: Binding affinity to human STING H232 mutant by ITC assay

Compound | pKd
Nc1nc2c(ncn2[C@@H]2O[C@@H]3COP(=O)(O)O[C@@H]4[C@H](O)[C@@H](COP(=O)(O)O[C@@H]2[C@@H]3O)O[C@H]4n2cnc3c(N)ncnc32)c(=O)[nH]1 | 5.60

Molecular target: T1, Stimulator of interferon genes protein (Homo sapiens, UniProt Q86WV6)
Assay: Inhibition of STING in human THP1 cells by IFN reporter gene assay
Assay type: cell-based

T1 sequence (Q86WV6 whole entry): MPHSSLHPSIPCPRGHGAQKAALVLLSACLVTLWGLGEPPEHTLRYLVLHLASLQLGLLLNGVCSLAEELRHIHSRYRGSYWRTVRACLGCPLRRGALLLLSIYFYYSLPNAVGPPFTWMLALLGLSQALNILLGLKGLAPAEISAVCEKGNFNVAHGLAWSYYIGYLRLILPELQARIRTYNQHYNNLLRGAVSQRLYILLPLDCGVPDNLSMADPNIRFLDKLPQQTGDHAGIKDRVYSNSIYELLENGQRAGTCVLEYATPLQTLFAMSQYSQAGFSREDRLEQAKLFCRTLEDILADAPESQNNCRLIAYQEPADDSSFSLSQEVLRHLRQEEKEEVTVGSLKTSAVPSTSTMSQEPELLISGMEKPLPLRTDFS

Compound | pEC50
C=C1[C@@H](n2cnc3c(N)ncnc32)[C@H](F)[C@@H]2O[P@@](O)(=S)OC[C@H]3O[C@@H](n4cnc5c(=O)[nH]c(N)nc54)[C@H](OP(O)(=S)OC[C@@H]12)[C@@H]3F (some centres not stated) | 6.13
Nc1ncnc2c1ncn2[C@@H]1O[C@@H]2CO[P@@](=O)(S)O[C@@H]3[C@H](F)[C@@H](CO[P@@](=O)(S)O[C@H]2[C@H]1F)O[C@H]3n1cnc2c(N)ncnc21 | 5.35
Nc1ncnc2c1ncn2[C@@H]1O[C@@H]2CO[P@@](=O)(S)O[C@@H]3[C@H](F)[C@@H](CO[P@@](=O)(S)O[C@H]2[C@H]1O)O[C@H]3n1cnc2c(N)ncnc21 | 4.95
Nc1ncnc2c1ncn2[C@@H]1O[C@@H]2CO[P@@](=O)(S)O[C@@H]3C[C@@H](CO[P@@](=O)(S)O[C@H]2[C@H]1F)O[C@H]3n1cnc2c(N)ncnc21 | 4.99
BP1(=O)OC[C@H]2O[C@@H](n3cnc4c(N)ncnc43)[C@H](O)[C@@H]2OP(=O)(O)OC[C@H]2O[C@@H](n3cnc4c(=O)[nH]c(N)nc43)[C@H](O1)[C@@H]2O (some centres not stated) | > 4.52
CCC[C@H]1[C@H]2OP(=O)(O)OC[C@H]3O[C@@H](n4cnc5c(N)ncnc54)[C@H](O)[C@@H]3OP(=O)(O)OC[C@H]1O[C@H]2n1cnc2c(=O)[nH]c(N)nc21 | ≥ 7.00
BP1(=O)OC[C@H]2O[C@@H](n3cnc4c(=O)[nH]c(N)nc43)[C@H](OP(=O)(O)OC[C@H]3O[C@@H](n4cnc5c(N)ncnc54)[C@H](O)[C@@H]3O1)[C@@H]2O (some centres not stated) | > 4.52

Molecular target: T1, Stimulator of interferon genes protein
Assay: Inhibition of STING in human THP1 cells in presence of PFO by IFN reporter gene assay
Assay type: cell-based

Compound | pEC50
BP1(=O)OC[C@H]2O[C@@H](n3cnc4c(N)ncnc43)[C@H](O)[C@@H]2OP(=O)(O)OC[C@H]2O[C@@H](n3cnc4c(=O)[nH]c(N)nc43)[C@H](O1)[C@@H]2O (some centres not stated) | > 7.00
CCC[C@H]1[C@H]2OP(=O)(O)OC[C@H]3O[C@@H](n4cnc5c(N)ncnc54)[C@H](O)[C@@H]3OP(=O)(O)OC[C@H]1O[C@H]2n1cnc2c(=O)[nH]c(N)nc21 | ≥ 4.52
BP1(=O)OC[C@H]2O[C@@H](n3cnc4c(=O)[nH]c(N)nc43)[C@H](OP(=O)(O)OC[C@H]3O[C@@H](n4cnc5c(N)ncnc54)[C@H](O)[C@@H]3O1)[C@@H]2O (some centres not stated) | > 7.00

Molecular target: T1, Stimulator of interferon genes protein
Assay: Inhibition of STING in human THP1 cells
Assay type: cell-based

Compound | pEC50
Nc1ncnc2c1ncn2[C@@H]1O[C@@H]2CNC(=O)N[C@H]3[C@@H](O)[C@H](n4cnc5c(N)ncnc54)O[C@@H]3CNC(=O)N[C@H]2[C@H]1O | 4.60
Nc1ncnc2c1ncn2[C@@H]1O[C@@H]2CNC(=S)N[C@H]3[C@@H](O)[C@H](n4cnc5c(N)ncnc54)O[C@@H]3CNC(=S)N[C@H]2[C@H]1O | 4.65

Molecular target: T1, Stimulator of interferon genes protein
Assay: Inhibition of STING in human THP1 cells in presence of digitonin by IFN reporter gene assay
Assay type: cell-based

Compound | pEC50
Nc1nc2c(ncn2[C@@H]2O[C@@]34CO[C@@H]2[C@@H]3O[P@](=O)(S)OC[C@@]23CO[C@@H]([C@H](n5cnc6c(N)ncnc65)O2)[C@@H]3O[P@](=O)(S)OC4)c(=O)[nH]1 | 4.71
Nc1nc2c(ncn2[C@@H]2O[C@@H]3CO[P@@](=O)(S)O[C@H]4[C@H]5OC[C@]4(CO[P@@](=O)(S)O[C@H]3[C@H]2O)O[C@H]5n2cnc3c(N)ncnc32)c(=O)[nH]1 | 5.24
Nc1ncnc2c1ncn2[C@@H]1O[C@@H]2CO[P@@](=O)(S)O[C@@H]3[C@H](F)[C@@H](CO[P@@](=O)(S)O[C@H]2[C@H]1F)O[C@H]3n1cnc2c(N)ncnc21 | 6.72
Nc1ncnc2c1ncn2[C@@H]1O[C@@H]2CO[P@@](=O)(S)O[C@@H]3[C@H](F)[C@@H](CO[P@@](=O)(S)O[C@H]2[C@H]1O)O[C@H]3n1cnc2c(N)ncnc21 | 6.40

Molecular target: Stimulator of interferon genes protein (Homo sapiens, UniProt Q86WV6, G230A/R293Q/R71H)
Assay: Displacement of [3H]-cGAMP from full length STING HAQ mutant in human THP1 cells by filtration binding assay
Assay type: cell-based

Stimulator of interferon genes protein (Homo sapiens, UniProt Q86WV6, G230A/R293Q/R71H), sequence (Q86WV6 whole entry R71H/G230A/R293Q): as the sequence (Q86WV6 whole entry) above, with R71H, G230A, R293Q counted along it

Compound | pEC50
COc1cc2sc(C(=O)C[C@H](C)C(=O)O)cc2c(F)c1OC | 5.86
COc1cc2sc(C(=O)[C@H]3C[C@H]3C(=O)O)cc2c(F)c1OC | 4.75
COc1cc2cc(C(=O)C[C@H](C)C(=O)O)sc2cc1OC | 5.56
Nc1nc2c(ncn2[C@@H]2O[C@@H]3COP(=O)(O)O[C@H]4[C@@H](O)[C@H](n5cnc6c(N)nc(F)nc65)O[C@@H]4COP(=O)(O)O[C@@H]2[C@@H]3O)c(=O)[nH]1 | 7.61
COc1cc2sc(C(=O)C[C@H](C)C(=O)O)cc2cc1Br | 5.58
COc1cc2sc(C(=O)C[C@H](C)C(=O)O)cc2c2nc(C)oc12 | 6.27
COc1cc2cc(C(=O)CC(C(=O)O)C(C)C)sc2cc1OC (configuration not stated) | 5.02
C#C[C@@H]1O[C@@H]2COP(=O)(S)O[C@H]3[C@@H](F)[C@H](n4cnc5c(N)ncnc54)O[C@@H]3COP(=O)(S)O[C@@H]1[C@@H]2O (some centres not stated) | > 9.00
COc1cc2sc(C(=O)[C@@H]3C[C@@H]3C(=O)O)cc2c(F)c1OC | 6.22
Nc1nc2c(ncn2[C@@H]2O[C@@H]3COP(=O)(O)O[C@H]4[C@@H](O)[C@H](n5cnc6c(N)nc(F)nc65)O[C@@H]4COP(=O)(O)O[C@@H]2[C@@H]3O)c(=S)[nH]1 | 8.77
NC[C@H]1[C@H]2OP(=O)(O)OC[C@H]3O[C@@H](n4cnc5c(N)ncnc54)[C@H](O)[C@@H]3OP(=O)(O)OC[C@H]1O[C@H]2n1cnc2c(=O)[nH]c(N)nc21 | 7.67
Nc1nc2c(ncn2[C@@H]2S[C@@H]3COP(=O)(O)O[C@H]4[C@@H](O)[C@H](n5cnc6c(N)ncnc65)O[C@@H]4COP(=O)(O)O[C@@H]2[C@@H]3O)c(=O)[nH]1 | 8.92
COc1cc2cc(C(=O)CCC(=O)O)sc2cc1OC | 5.76
Nc1nc2c(nnn2[C@@H]2O[C@@H]3COP(=O)(O)O[C@H]4[C@@H](O)[C@H](n5cnc6c(N)ncnc65)O[C@@H]4COP(=O)(O)O[C@@H]2[C@@H]3O)c(=O)[nH]1 | > 9.00
COc1cc2cc(C(=O)C[C@H](C)C(=O)O)sc2cc1Br | 6.05
COc1cc2cc(C(=O)CC(C)C(=O)O)sc2cc1OC (configuration not stated) | 5.26
COc1cc2cc(C(=O)CCC(=O)OC(C)(C)C)sc2cc1OC | 5.22

Test system: Stimulator of interferon genes protein (Homo sapiens), Q86WV6 [R71H,G230A,R293Q]
Assay: Effect on full length STING HAQ mutant in human THP1 cells at 10 uM relative to 2',3- cGAMP
Assay type: cell-based

Stimulator of interferon genes protein (Homo sapiens), Q86WV6 [R71H,G230A,R293Q], sequence (Q86WV6 whole entry R71H/G230A/R293Q): as the sequence (Q86WV6 whole entry) above, with R71H, G230A, R293Q counted along it

Compound | Activity [%]
C=C1[C@@H](n2cnc3c(N)ncnc32)[C@H](F)[C@@H]2O[P@@](O)(=S)OC[C@H]3O[C@@H](n4cnc5c(=O)[nH]c(N)nc54)[C@H](OP(O)(=S)OC[C@@H]12)[C@@H]3F (some centres not stated) | 430

Molecular target: T2, Stimulator of interferon genes protein (Mus musculus, UniProt Q3TBT3)
T2 sequence (Q3TBT3 whole entry): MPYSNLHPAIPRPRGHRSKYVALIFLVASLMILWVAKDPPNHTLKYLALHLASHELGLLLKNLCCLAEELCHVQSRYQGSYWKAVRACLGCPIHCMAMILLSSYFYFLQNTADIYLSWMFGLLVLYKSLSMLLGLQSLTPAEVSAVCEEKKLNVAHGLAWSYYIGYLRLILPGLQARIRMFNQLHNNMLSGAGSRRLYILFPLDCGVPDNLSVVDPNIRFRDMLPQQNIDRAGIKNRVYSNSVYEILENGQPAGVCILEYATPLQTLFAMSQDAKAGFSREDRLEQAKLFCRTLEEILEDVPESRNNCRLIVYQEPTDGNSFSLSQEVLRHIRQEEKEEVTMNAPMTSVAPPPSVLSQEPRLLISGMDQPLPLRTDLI
Assay: Binding affinity to mouse STING by ITC assay

Compound | pKd
COc1c(O)cc2oc3cc(O)c(CC=C(C)C)c(O)c3c(=O)c2c1CC=C(C)C [MANGOSTIN] | 3.86

Molecular target: T1, Stimulator of interferon genes protein
Assay: Displacement of [3H]-cGAMP from wild type human STING by filtration binding assay

Compound | pIC50
COc1c(Cl)ccc2c(=O)c3ccc(C(C)(C)C)cc3n(CC(=O)O)c12 | > 4.70

Molecular target: T2, Stimulator of interferon genes protein
Assay: Displacement of [3H]-cGAMP from mouse STING by filtration binding assay

Compound | pIC50
COc1c(Cl)ccc2c(=O)c3ccc(C(C)(C)C)cc3n(CC(=O)O)c12 | > 4.70

Molecular target: T1, Stimulator of interferon genes protein
Assay: Inhibition of STING in human THP1 cells by R232 IRF-luciferase reporter gene assay
Assay type: cell-based

Compound | pIC50
COc1c(Cl)ccc2c(=O)c3ccc(C(C)(C)C)cc3n(CC(=O)O)c12 | < 4.30

Molecular target: T1, Stimulator of interferon genes protein
Assay: Inhibition of wild type human STING by SPA assay

Compound | pIC50
CCn1nc(C)cc1C(=O)Nc1nc2cc(C(N)=O)ccc2n1CCCCn1c(NC(=O)c2cc(C)nn2CC)nc2cc(C(N)=O)ccc21 | 7.70
CCn1nc(C)cc1C(=O)/N=c1\[nH]c2cc(C(N)=O)ccc2n1C[C@@H](O)c1ccccc1 | 4.85

Test system: not listed separately
Assay: Inhibition of human STING H232 mutant by SPA assay

Compound | pEC50
CCn1nc(C)cc1C(=O)/N=c1\[nH]c2cc(C(N)=O)cc(OC)c2n1C/C=C/Cn1/c(=N/C(=O)c2cc(C)nn2CC)[nH]c2cc(C(N)=O)cc(OCCCN3CCOCC3)c21 | 6.70
